The subject of assay [1] is C. perfringens neuraminidase. It counts as biochemical, Clostridium perfringens. As to conditions: for IC50: read-out: IC50 Value C. perfringen Neuraminidase.
Assay [2] addresses T1, SARS-CoV-2 main protease (Severe acute respiratory syndrome coronavirus 2, UniProt P0DTD1). Briefly: biochemical. It counts as biochemical. As to conditions: for IC50: IC50 Value SARS-CoV-2 Main Protease.
Assay [3] has as its system SARS-CoV-2 spike protein–human ACE2 interaction. It counts as binding, SARS-CoV-2 / human.
Assay [4] has as its target T1, SARS-CoV-2 main protease. As to conditions: read-out: IC50 Value SARS-CoV-2 Main Protease; cited from earlier work.

“And” between values parts separate entries of the source, which are not always exact repeats. Equal values may be shown once. Read-outs that look alike come from different tables or passages of the source.

By IC50 is commonly meant the concentration that gives 50% inhibition. For orientation: inhibition means how much of the control response was suppressed. A low value points to little suppression. As to `CCCCCc1cc(O)c2c(c1)OC(C)(CCC=C(C)C)C=C2` (centres unmarked) [CBC, cannabichromene], in assay [1], the “Potency Index*, bacterial neuraminidase, compared to std influenza A” value (shortened to “Potency Index*, bacterial neuraminidase”) came to 56.89; the “Potency Index, bacterial (C. perfringens) neuraminidase” value (“Potency Index, bacterial” for short) turned out to be 5.18; the IC50 stood at 56.9 µM. Also, in assay [2], the “Potency Index, SARS-CoV-2 main protease” value is given as 100 and the inhibition at 100 µg/mL is 75%. For the same molecule, in assay [3], the “% Inhibition SARS-CoV-2 Spike Protein–Human ACE2 Interaction” value was 95.25 (± 4.54) %; the “Potency Index, SARS-CoV-2 spike protein” value is reported as 4.99; the “Ratio, SARS-CoV2 spike protein” value turned out to be 1.05.

As for `C=C(C)[C@@H]1CCC(C)=C[C@H]1c1c(O)cc(CCCCC)cc1O` [CBD, cannabidiol, reference compound], in assay [1], the “Potency Index*, bacterial neuraminidase” value is listed as 4.53; the “Potency Index, bacterial” value is given as 0.41; the 50% inhibitory concentration (IC50) was 4.5 µM and 4.53 µM. Further, in assay [2], the “Potency Index, SARS-CoV-2 main protease” value turned out to be 4.43. For the same molecule, in assay [3], the “Potency Index, SARS-CoV-2 spike protein” value was 77.62 and the “Ratio, SARS-CoV2 spike protein” value was determined as 1.78. Moreover, the concentration for half-maximal inhibition (IC50) in assay [4] is 1.86 µM.

As for `C=C(C)C1CCC(C)(O)C2Oc3cc(CCCCC)cc(O)c3C12` (centres unmarked) [CBE, cannabielsoin], in assay [2], the “Potency Index, SARS-CoV-2 main protease” value is 100 and the inhibition at 100 µg/mL came to 80.3%. For the same molecule, in assay [3], the “Potency Index, SARS-CoV-2 spike protein” value is 35.75 and the “Ratio, SARS-CoV2 spike protein” value is 1.36.

With `CCCCCc1cc(O)c2c(c1)oc1c(C)ccc(C(C)C)c12` [CBF, cannabifuran], in assay [2], the “Potency Index, SARS-CoV-2 main protease” value is on record as 100 and the inhibition at 100 µg/mL came out at 65.3%. Further, in assay [3], the “% Inhibition SARS-CoV-2 Spike Protein–Human ACE2 Interaction” value was 99.22 (± 1.36) % and the “Ratio, SARS-CoV2 spike protein” value came out at 1.01.

As to `CCCCCc1cc(O)c(C/C=C(\C)CCC=C(C)C)c(O)c1` [CBG, cannabigerol], in assay [1], the “Potency Index*, bacterial neuraminidase” value was determined as 6.92; the “Potency Index, bacterial” value was 0.63; the IC50 was 6.9 µM and 6.92 µM. In assay [2], this molecule returned an inhibition at 100 µg/mL of more than 80% and a concentration for half-maximal inhibition (IC50) of 5.68 µM. Moreover, in assay [3], the “% Inhibition SARS-CoV-2 Spike Protein–Human ACE2 Interaction” value is listed as 97.60 (± 4.16) %; the “Potency Index, SARS-CoV-2 spike protein” value is 2.46; the “Ratio, SARS-CoV2 spike protein” value came out at 1.02.

Turning to `CCCCCc1cc(O)c2c(c1)OC1(C)CCC3C1C2C3(C)C` (centres unmarked) [CBL, cannabicyclol], in assay [1], the “Potency Index*, bacterial neuraminidase” value was found to be 96.12; the “Potency Index, bacterial” value came out at 8.75; the IC50 was determined as 96.1 µM. In assay [2], this molecule gave an inhibition at 100 µg/mL of more than 80% and an IC50 of 5.67 µM. In assay [3], the “Potency Index, SARS-CoV-2 spike protein” value is 54.53 and the “Ratio, SARS-CoV2 spike protein” value was 1.55.

Consider `CCCCCc1cc(O)c2c(c1)OC(C)(C)c1ccc(C)cc1-2` [CBN, cannabinol], for which, in assay [1], the “% Inhibition C. perfringen Neuraminidase” value was 34.87 (± 3.08) %; the “Potency Index*, bacterial neuraminidase” value was 100.00; the “Potency Index, bacterial” value was found to be 100. The “Potency Index, SARS-CoV-2 main protease” value in assay [2] was 100. In assay [3], the “Potency Index, SARS-CoV-2 spike protein” value was 39.18 and the “Ratio, SARS-CoV2 spike protein” value was determined as 1.39.

For `CCCCCc1cc(O)c2c(c1)OC(C)(C)[C@@H]1CCC(C)=C[C@@H]21` [THC, tetrahydrocannabinol, reference compound], in assay [1], the “Potency Index*, bacterial neuraminidase” value was determined as 20.30; the “Potency Index, bacterial” value came to 1.85; the IC50 is ~20.3 µM and 20.3 µM. In addition, the “Potency Index, SARS-CoV-2 main protease” value in assay [2] is 38.64. In assay [3], the “Potency Index, SARS-CoV-2 spike protein” value was determined as 72.94 and the “Ratio, SARS-CoV2 spike protein” value stood at 1.73. In addition, the IC50 in assay [4] is 16.2 µM.

For the molecule `COc1cc(O)c2c(c1)O[C@H](c1ccccc1)CC2=O` [pinostrobin, reference compound], the “% Inhibition SARS-CoV-2 Spike Protein–Human ACE2 Interaction” value in assay [3] stood at 100%.

With `O=c1c(O)c(-c2ccc(O)c(O)c2)oc2cc(O)cc(O)c12` [quercetin, reference compound], the IC50 in assay [1] is ~11 µM and 11 µM.

These data come from publication PMC11941704 (Current Issues in Molecular Biology, 2025).
